Five compounds from ChEMBL document CHEMBL3112509, “Synthesis and antimicrobial activity of (1,4-phenylene)bis(arylsulfonylpyrazoles and isoxazoles)” (2014) can be followed below.

Holding throughout (assay type): functional
The subject of assay [1] is Staphylococcus aureus. Briefly: Antibacterial activity against Staphylococcus aureus at 50 ug/well after 24 hrs by agar well diffusion method. As to conditions: read-out: DIZ.
Assay [2] concerns Bacillus subtilis. Briefly: Antibacterial activity against Bacillus subtilis after 24 hrs by broth dilution test. Background: Broth dilution looks for growth in wells or tubes with falling amounts of substance.
Assay [3] has as its system Klebsiella pneumoniae. The assay can be described thus: Antibacterial activity against Klebsiella pneumoniae at 50 ug/well after 24 hrs by agar well diffusion method. As to conditions: read-out: DIZ.
The test system of assay [4] is Klebsiella pneumoniae. The assay can be described thus: Antibacterial activity against Klebsiella pneumoniae after 24 hrs by broth dilution test.
Assay [5] concerns Klebsiella pneumoniae. The assay can be described thus: Antibacterial activity against Klebsiella pneumoniae at 100 ug/well after 24 hrs by agar well diffusion method. As to conditions: read-out: DIZ. In general terms: In agar diffusion tests the substance spreads into inoculated agar from a disc or well.
The subject of assay [6] is Penicillium chrysogenum. Briefly: Antifungal activity against Penicillium chrysogenum at 50 ug/well after 48 hrs by agar well diffusion method. As to conditions: read-out: DIZ.
Assay [7] relates to Bacillus subtilis. Briefly: Antibacterial activity against Bacillus subtilis at 50 ug/well after 24 hrs by agar well diffusion method. As to conditions: read-out: DIZ.
The subject of assay [8] is Staphylococcus aureus. Briefly: Antibacterial activity against Staphylococcus aureus after 24 hrs.
For assay [9], the system named is Pseudomonas aeruginosa. The assay can be described thus: Antibacterial activity against Pseudomonas aeruginosa at 50 ug/well after 24 hrs by agar well diffusion method. As to conditions: read-out: DIZ.
The test system of assay [10] is Pseudomonas aeruginosa. Briefly: Antibacterial activity against Pseudomonas aeruginosa after 24 hrs.
Assay [11] has as its system Penicillium chrysogenum. The assay can be described thus: Antifungal activity against Penicillium chrysogenum at 100 ug/well after 48 hrs by agar well diffusion method. As to conditions: read-out: DIZ.
Assay [12] has as its system Klebsiella pneumoniae. Briefly: Antibacterial activity against Klebsiella pneumoniae after 24 hrs.
Assay [13] concerns Pseudomonas aeruginosa. Briefly: Antibacterial activity against Pseudomonas aeruginosa at 100 ug/well after 24 hrs by agar well diffusion method. As to conditions: read-out: DIZ.
For assay [14], the system named is Staphylococcus aureus. Briefly: Antibacterial activity against Staphylococcus aureus at 100 ug/well after 24 hrs by agar well diffusion method. As to conditions: read-out: DIZ.
Assay [15] deals with Penicillium chrysogenum. Briefly: Antifungal activity against Penicillium chrysogenum after 48 hrs.
Assay [16] concerns Staphylococcus aureus. The assay can be described thus: Antibacterial activity against Staphylococcus aureus after 24 hrs by broth dilution test.
Assay [17] relates to Bacillus subtilis. Briefly: Antibacterial activity against Bacillus subtilis at 100 ug/well after 24 hrs by agar well diffusion method. As to conditions: read-out: DIZ.
Assay [18] concerns Aspergillus niger. Briefly: Antifungal activity against Aspergillus niger at 100 ug/well after 48 hrs by agar well diffusion method. As to conditions: read-out: DIZ.
In assay [19] the test system is Aspergillus niger. The assay can be described thus: Antifungal activity against Aspergillus niger after 48 hrs.
For assay [20], the system named is Aspergillus niger. The assay can be described thus: Antifungal activity against Aspergillus niger at 50 ug/well after 48 hrs by agar well diffusion method. As to conditions: read-out: DIZ.
Assay [21] concerns Penicillium chrysogenum. Briefly: Antifungal activity against Penicillium chrysogenum after 48 hrs by broth dilution test.
Assay [22] concerns Bacillus subtilis. Briefly: Antibacterial activity against Bacillus subtilis after 24 hrs.
Assay [23] concerns Pseudomonas aeruginosa. Briefly: Antibacterial activity against Pseudomonas aeruginosa after 24 hrs by broth dilution test.
The test system of assay [24] is Aspergillus niger. Briefly: Antifungal activity against Aspergillus niger after 48 hrs by broth dilution test.

The MIC is the smallest concentration in the dilution series that meets the test's criterion for growth inhibition. As usually defined, the MBC is the lowest tested concentration that kills the bacteria rather than only halting them. High values mean less potent killing, low ones more potent killing. As usually defined, the MFC is the smallest concentration meeting the test's criterion for killing the fungus. A low value points to greater fungicidal potency.

In brackets after ≈: the same amount, converted by molar mass. Where only a bound is given, the exact number is not on record here.

For the compound `Cc1ccc(S(=O)(=O)c2c(-c3ccc(Cl)cc3)noc2-c2ccc(-c3onc(-c4ccc(Cl)cc4)c3S(=O)(=O)c3ccc(C)cc3)cc2)cc1`, the zone of inhibition at 50 µg/disc came out at 30 mm in [1]; 26 mm in assay [3]; 32 mm in assay [6]; 33 mm in assay [7]; 22 mm in assay [9]; 28 mm in assay [20]. Moreover, the MIC in assay [2] is 25 µg/mL (≈ 33.7 µM); in assay [4] it was 100 µg/mL (≈ 135 µM); in assay [16], 50 µg/mL (≈ 67.4 µM); in assay [21] it was 25 µg/mL (≈ 33.7 µM); in [23], 50 µg/mL (≈ 67.4 µM); in [24], 50 µg/mL (≈ 67.4 µM). Further, the zone of inhibition at 100 µg/disc in assay [5] was 28 mm; in assay [11], 34 mm; in assay [13], 24 mm; in assay [14], 32 mm; in [17], 36 mm; in [18], 30 mm. The MBC in assay [8] was 200 µg/mL (≈ 270 µM); in assay [10], above 200 µg/mL; in assay [12], above 200 µg/mL; in assay [22], 100 µg/mL (≈ 135 µM). In addition, the MFC in assay [15] was 100 µg/mL (≈ 135 µM); in assay [19] it was above 200 µg/mL.
For `O=S(=O)(c1ccccc1)c1c(-c2ccc(Cl)cc2)noc1-c1ccc(-c2onc(-c3ccc(Cl)cc3)c2S(=O)(=O)c2ccccc2)cc1`, the zone of inhibition at 50 µg/disc in assay [1] was 31 mm; in assay [3], 28 mm; in assay [6], 34 mm; in [7] it was 35 mm; in [9] it was 24 mm; in assay [20], 29 mm. Also, the MIC in assay [2] stood at 25 µg/mL (≈ 35 µM); in assay [4] it was 100 µg/mL (≈ 140 µM); in assay [16], 50 µg/mL (≈ 70.1 µM); in [21] it was 25 µg/mL (≈ 35 µM); in [23] it was 50 µg/mL (≈ 70.1 µM); in [24] it was 50 µg/mL (≈ 70.1 µM). The zone of inhibition at 100 µg/disc in assay [5] is 30 mm; in [11], 36 mm; in [13] it was 26 mm; in assay [14], 33 mm; in assay [17], 37 mm; in assay [18] it was 31 mm. In addition, the MBC in assay [8] is 200 µg/mL (≈ 280 µM); in [10], 200 µg/mL (≈ 280 µM); in assay [12], above 200 µg/mL; in assay [22], 50 µg/mL (≈ 70.1 µM). The MFC in [15] stood at 100 µg/mL (≈ 140 µM); in assay [19], 200 µg/mL (≈ 280 µM).
`O=S(=O)(c1ccc(Cl)cc1)c1c(-c2ccc(Cl)cc2)noc1-c1ccc(-c2onc(-c3ccc(Cl)cc3)c2S(=O)(=O)c2ccc(Cl)cc2)cc1`: the zone of inhibition at 50 µg/disc in assay [1] was determined as 32 mm; in assay [3], 32 mm; in [6], 35 mm; in assay [7] it was 35 mm; in assay [9], 25 mm; in assay [20] it was 30 mm. In addition, the MIC was found to be 12.5 µg/mL (≈ 16 µM) in [2]; 25 µg/mL (≈ 31.9 µM) in [4]; 12.5 µg/mL (≈ 16 µM) in [16]; 25 µg/mL (≈ 31.9 µM) in assay [21]; 12.5 µg/mL (≈ 16 µM) in assay [23]; 12.5 µg/mL (≈ 16 µM) in [24]. Besides, the zone of inhibition at 100 µg/disc in assay [5] was determined as 34 mm; in [11] it was 37 mm; in [13], 27 mm; in assay [14] it was 34 mm; in [17], 38 mm; in [18], 33 mm. The MBC turned out to be 50 µg/mL (≈ 63.9 µM) in assay [8], 50 µg/mL (≈ 63.9 µM) in assay [10], 100 µg/mL (≈ 128 µM) in assay [12] and 25 µg/mL (≈ 31.9 µM) in assay [22]. The MFC is 50 µg/mL (≈ 63.9 µM) in [15] and 100 µg/mL (≈ 128 µM) in [19].
For `O=C(N[C@H](CO)[C@H](O)c1ccc([N+](=O)[O-])cc1)C(Cl)Cl` [CHLORAMPHENICOL], the zone of inhibition at 50 µg/disc in assay [1] worked out at 33 mm; in [3] it was 40 mm; in assay [7], 34 mm; in assay [9] it was 27 mm. In addition, the MIC in assay [2] was determined as 6.25 µg/mL (≈ 19.3 µM); in assay [4], 12.5 µg/mL (≈ 38.7 µM); in assay [16], 6.25 µg/mL (≈ 19.3 µM); in assay [23], 6.25 µg/mL (≈ 19.3 µM). In addition, the zone of inhibition at 100 µg/disc amounted to 42 mm in [5], 30 mm in assay [13], 35 mm in [14] and 38 mm in [17].
`O=S(=O)(c1ccc(Cl)cc1)c1c(-c2ccc(Cl)cc2)nn(-c2ccccc2)c1-c1ccc(-c2c(S(=O)(=O)c3ccc(Cl)cc3)c(-c3ccc(Cl)cc3)nn2-c2ccccc2)cc1`: the zone of inhibition at 50 µg/disc in [1] stood at 29 mm; in [3] it was 25 mm; in assay [6] it was 28 mm; in [7] it was 32 mm; in [9], 20 mm; in assay [20], 34 mm. In addition, the MIC in assay [2] was determined as 50 µg/mL (≈ 53.6 µM); in assay [4] it was 100 µg/mL (≈ 107 µM); in [16], 50 µg/mL (≈ 53.6 µM); in assay [21], 25 µg/mL (≈ 26.8 µM); in assay [23] it was 50 µg/mL (≈ 53.6 µM); in [24] it was 50 µg/mL (≈ 53.6 µM). Also, the zone of inhibition at 100 µg/disc turned out to be 27 mm in [5]; 31 mm in assay [11]; 22 mm in assay [13]; 31 mm in [14]; 34 mm in [17]; 37 mm in assay [18]. The MBC in assay [8] was above 200 µg/mL; in assay [10] it was above 200 µg/mL; in [12], above 200 µg/mL; in assay [22], 200 µg/mL (≈ 214 µM). The MFC is above 100 µg/mL in assay [15] and above 200 µg/mL in [19].
